Values of other authors in publication PMC11675001, “Monovalent and Divalent Designs of Copper Radiotheranostics Targeting Fibroblast Activation Protein in Cancer” (Cancers, 2024).

What was measured:
[1] = ref European Journal of Nuclear Medicine and Molecular Imaging (2022): 1-11 [3]; Pharmaceuticals 16, no. 8 (2023): 1138 [4]
[2] = after 3 h; ref European Journal of Nuclear Medicine and Molecular Imaging (2022): 1-11 [3]; Pharmaceuticals 16, no. 8 (2023): 1138 [4]

In the case of `CN(CCCN1CCN(C(=O)CN2CCN(CC(=O)[O-])CCN(CC(=O)[O-])CCN(CC(=O)[O-])CC2)CC1)c1ccc2nccc(C(=O)NCC(=O)N3CC(F)(F)C[C@H]3C#N)c2c1.[68Ga+3]` [[68Ga]Ga-FAPI-46], the “Partition coefficient (LogP)” value [1] is listed as −3.57 and the Stability [2] is listed as greater than 95.3%.
